What was measured:
Assay type in all cases: in vivo
Monochoria vaginalis [1] = assay: Herbicidal effect test under submerged conditions, inhibition ratio (Test Example 6); conditions: Pontederia vaginalis, 504 h; dosage 25 g/ha; live weight of aerial part, three weeks after the treatment; read-out: inhibition ratio (%), C (Monochoria vaginalis)
Description: (§1) [Test Example 6] Herbicidal effect test under submerged conditions
(§2) In a 1/5,000-are Wagner pot was filled alluvial soil, which was mixed with water introduced therein to establish submerged conditions at a water depth of 4 cm. After seeds of Monochoria vaginalis and Scirpus juncoides were sowed mixedly in the pot, 2.5 leaf stage rice seedlings were transplanted at a depth of 2 cm. On the next day of transplantation of the rice, the compound of the present invention prepared according to one of Composition Examples was applied. Three weeks after the treatment, the live weights of aerial parts of each kind of the weeds and rice were measured and inhibition ratios (%) were obtained according to Test Example 4. In the tables, (E) indicates expected values obtained by the equation of Colby and (F) indicates found values. Left side values and right side values in the column of application rate for each active ingredient indicate corresponding dosages of compounds in the column of compound name.
(§3) Synergistic herbicidal effect of herbicide mixtures will be explained as follows. That is, individual active compounds in many cases may be deficient in their herbicidal activity. In such a case, if the herbicidal activity of two active compounds in combination is higher than the simple sum of the activities of the compounds (expected activity), then this is called synergistic action. The expected activity from the stable combination of two herbicides, can be calculated as follows. (cf. Colby, S. R., Calculation of Synergistic and Antagonistic Reactions of Combination of Herbicides, Weed, vol. 15, pages 20-22 (1967)) E = α + β - ( α · β / 100) [formula] α : Inhibition ratio when herbicide A is applied in a rate of a kg/ha β : Inhibition ratio when herbicide B is applied in a rate of b kg/ha E : Inhibition ratio expected when herbicide A is applied in a rate of a kg/ha and herbicide B is applied in a rate of b kg/ha.

Scirpus juncoides [2] = assay: as above; conditions: Schoenoplectiella juncoides, 504 h; dosage 25 g/ha; live weight of aerial part, three weeks after the treatment; read-out: inhibition ratio (%), B (Scirpus juncoides)
Description: as §1, §2, §3

Rotala indica [3] = assay: Herbicidal effect test under submerged conditions (Test Example 5); set-up: key: 0 indicating no influence; 5 indicating complete withering; conditions: three weeks after the treatment, rating 0-5
Description: (§4) [Test Example 5] Herbicidal effect test under submerged conditions
(§5) In a 1/10,000-are Wagner pot was filled alluvial soil, which was mixed with water introduced therein to establish submerged conditions at a water depth of 4 cm. Respective seeds of Monochoria vaginalis, Rotala indica and Scirpus juncoides were sowed mixedly in the pot and then treated with the compound of the present invention prepared according to one of Composition Examples. Three weeks after the treatment, the herbicidal effect on the various weeds was examined.

Monochoria vaginalis [4] = assay: as above; set-up: key: 0 indicating no influence; 5 indicating complete withering; conditions: three weeks after the treatment, rating 0-5
Description: as §4, §5

Scirpus juncoides [5] = assay: as above; set-up: key: 0 indicating no influence; 5 indicating complete withering; conditions: three weeks after the treatment, rating 0-5
Description: as §4, §5

[6] = tested on: Echinochloa crus-galli var. crus-galli; assay: Comparative test, post-emergence treatment under submerged conditions (as Test Example 2); set-up: key: 0 indicating no influence; 5 indicating complete withering; conditions: three weeks after the treatment, rating 0-5
Description: (§6) [Test Example 2] Herbicidal effect test by post-emergence treatment to weeds under submerged conditions
(§7) In a 1/10,000-are Wagner pot was filled alluvial soil, which was mixed with water introduced therein to establish submerged conditions at a water depth of 4 cm. Respective seeds of Echinochloa crus-galli var. crus-galli, Monochoria vaginalis, Rotala indica and Scirpus juncoides were sowed mixedly in the pot and then 2.5 leaf stage rice seedlings were transplanted. The pot was placed in a greenhouse at 25 to 30°C to grow the plant. When Echinochloa crus-galli var. crus-galli, Monochoria vaginalis, Rotala indica and Scirpus juncoides reached 1 to 2 leaf stage and the rice plant reached 4 leaf stage, the compound of the present invention prepared according to one of Composition Examples was applied onto the water surface at a predetermined application rate. Three weeks after the treatment, the herbicidal effect on each kind of the weeds was examined in accordance with the criteria of judgment in Test Example 1.
(§8) [drawing 170] (diastreomer-(1) and (2)) involved in the claims of WO 97/02258 and the compound No. A-5 of the present invention were carried out in manners similar to that in test example 1 and 2.

Monochoria vaginalis [7] = assay: as above; set-up: key: 0 indicating no influence; 5 indicating complete withering; conditions: three weeks after the treatment, rating 0-5
Description: as §6, §7, §8

Scirpus juncoides [8] = assay: as above; set-up: key: 0 indicating no influence; 5 indicating complete withering; conditions: three weeks after the treatment, rating 0-5
Description: as §6, §7, §8

Rotala indica [9] = assay: as above; conditions: three weeks after the treatment, rating 0-5
Description: as §6, §7, §8

rice plant = assay: Phytotoxicity test under shallow planting conditions for rice plant (Test Example 4); conditions: aerial part, three weeks after the treatment
Description: [Test Example 4] Phytotoxicity test under shallow planting conditions for rice plant In a 1/5,000-are Wagner pot was filled alluvial soil, which was mixed with water introduced therein to establish submerged conditions at a water depth of 4 cm. Rice seedlings at 2.5 leaf stage were transplanted at a depth of 0.5 cm and the roots were exposed to the air. On the day when the transplantation was made, the compound of the present invention prepared according to one of Composition Examples was applied. Three weeks after the treatment, the live weight of the aerial part of the plant was measured and inhibition ratio (%) was obtained according to the following equation. Inhibition ratio (%) = (1 -(live weight of aerial part of treated plant)/(live weight of aerial part of non-treated plant)) x 100 [formula]

transplanted rice = assay: Herbicidal effect test under submerged conditions, inhibition ratio (Test Example 6); conditions: dosage 25 g/ha; live weight of aerial part, three weeks after the treatment
Description: Herbicidal effect test under submerged conditions
In a 1/5,000-are Wagner pot was filled alluvial soil, which was mixed with water introduced therein to establish submerged conditions at a water depth of 4 cm. After seeds of Monochoria vaginalis and Scirpus juncoides were sowed mixedly in the pot, 2.5 leaf stage rice seedlings were transplanted at a depth of 2 cm. On the next day of transplantation of the rice, the compound of the present invention prepared according to one of Composition Examples was applied. […] In the tables, (E) indicates expected values obtained by the equation of Colby and (F) indicates found values.
The expected activity from the stable combination of two herbicides, can be calculated as follows.

With C=C(C)[C@@H]1C[C@@H]2O[C@]2(C)[C@H](OCc2ccccc2F)C1 [A-5, (1S, 2R, 4S, 6S)-2-(2-fluorobenzyloxy)-4-isopropenyl-1-methyl-7-oxabicyclo[4.1.0]heptane] the pest or weed control at 25 g/ha (Monochoria vaginalis [1]) was 59%, the pest or weed control at 25 g/ha (Scirpus juncoides [2]) was 52% and the “herbicidal effect, D (Rotala indica)” value (Rotala indica [3]; dosage 125 g/ha) was 2. The “herbicidal effect, D (Rotala indica)” value (Rotala indica [3]; dosage 250 g/ha) was 4, the “herbicidal effect, D (Rotala indica)” value (Rotala indica [3]; dosage 500 g/ha) was 5 and the “herbicidal effect, C (Monochoria vaginalis)” value (from here on “herbicidal effect, C”) (Monochoria vaginalis [4]; dosage 125 g/ha) was 3. For the same compound, the “herbicidal effect, C” value (Monochoria vaginalis [4]; dosage 250 g/ha) was 5, the “herbicidal effect, C” value (Monochoria vaginalis [4]; dosage 500 g/ha) was 5 and the “herbicidal effect, B (Scirpus juncoides)” value (Scirpus juncoides [5]; dosage 125 g/ha) was 4. For the same compound, the “herbicidal effect, B (Scirpus juncoides)” value (Scirpus juncoides [5]; dosage 250 g/ha) was 5, the “herbicidal effect, B (Scirpus juncoides)” value (Scirpus juncoides [5]; dosage 500 g/ha) was 5 and the “herbicidal effect, A (Echinochloa crus-galli var. crus-galli)” value ([6]; dosage 12.5 g/ha) was 1. The “herbicidal effect, A (Echinochloa crus-galli var. crus-galli)” value ([6]; dosage 50 g/ha) was 5, the “herbicidal effect, A (Echinochloa crus-galli var. crus-galli)” value ([6]; dosage 200 g/ha) was 5 and the “herbicidal effect, C” value (Monochoria vaginalis [7]; dosage 12.5 g/ha) was 1. For the same compound, the “herbicidal effect, C” value (Monochoria vaginalis [7]; dosage 50 g/ha) was 4, the “herbicidal effect, C” value (Monochoria vaginalis [7]; dosage 200 g/ha) was 5 and the “herbicidal effect, B (Scirpus juncoides)” value (Scirpus juncoides [8]; dosage 12.5 g/ha) was 1. The “herbicidal effect, B (Scirpus juncoides)” value (Scirpus juncoides [8]; dosage 50 g/ha) was 3, the “herbicidal effect, B (Scirpus juncoides)” value (Scirpus juncoides [8]; dosage 200 g/ha) was 5 and the “herbicidal effect, D (Rotala indica)” value (Rotala indica [9]; dosage 12.5 g/ha) was 1. For the same compound, the “herbicidal effect, D (Rotala indica)” value (Rotala indica [9]; dosage 50 g/ha) was 3, the “herbicidal effect, D (Rotala indica)” value (Rotala indica [9]; dosage 200 g/ha) was 4 and the “the ratio of live weight to the non-treated area (%)” value (rice plant; dosage 125 g/ha) was 86%. The “the ratio of live weight to the non-treated area (%)” value (rice plant; dosage 250 g/ha) was 67% and the “inhibition ratio (%), a (transplanted rice)” value (transplanted rice) was 0%.

Reference: patent EP0976707A1, “CYCLOALKYL BENZYL ETHER COMPOUNDS” (Nissan Chemical Industries, Ltd., priority 1997, dated 1998)
